In ChEMBL document CHEMBL1144057, “Guiaflavine, a new bisindole quaternary alkaloid from the stem bark of Strychnos guianensis” (J Nat Prod, 1999):

Test system: Mus musculus
Test: Toxicity in ip dosed NMRI mouse
Type: organism-based
Conditions: in vivo

CCc1c[n+]2c(cc1C1=CN3c4ccccc4[C@@]45CC[N+]6(C)CC7=CCO[C@@H]1[C@@H]([C@H]34)[C@H]7C[C@@H]56)-c1[nH]c3cccc(OC)c3c1CC2.[Cl-].[Cl-] (stereo partly specified) [GUIAFLAVINE]
LD100: 100 mg/kg
